Data set [1] deals with human platelet rich plasma (PRP), ADP-induced platelet aggregation. Details: method as in PMID 23154304. As to conditions: inducer ADP, obtained in previous study, read-out: Antiplatelet aggregation activity, IC50, ADP; cited from earlier work.
Data set [2] concerns human platelet rich plasma (PRP), collagen-induced platelet aggregation. The experiment in a line: Collagen-induced platelet aggregation in human platelet rich plasma (Born turbidimetric method). Format: cell-based. As to conditions: inducer collagen (5 µM); for pIC50: Platelet, read-out: Antiplatelet aggregation activity, IC50, Collagen. Here is the method: (§1) The in vitro antiplatelet activity of the derivatives was evaluated using human platelet rich plasma (PRP)on an APACT 4004 aggregometerby Born’s reported turbidimetric method([16]). ADP (5 µM), arachidonic acid (1.25 mg/mL) and collagen (5 µM) were used as inducers of platelet aggregation. IC50 was defined as the concentration of the test compound that inhibits the platelet aggregation by 50%. The detailed procedure has been described in our previous works([11],[12],[17]).

Data set [3] deals with human platelet rich plasma (PRP), arachidonic acid-induced platelet aggregation. Set-up: method as in PMID 23154304. The settings on record: inducer arachidonic acid, obtained in previous study, read-out: Antiplatelet aggregation activity, IC50, AA; cited from earlier work.
In data set [4] the test system is Fibroblast L929 cell line. In words: Cytotoxicity assay, MTT method. The data set is classed as cell-based. The settings on record: 24 h of exposure. How it is done:
(§2) The synthesized derivatives were assayed for their toxicity on Fibroblast L929 cell line by MTT [[…]] method. The compounds were initially screened at 100 µM concentration and IC50 was calculated for those showing more than 50% toxicity. The detailed procedure has been described in our previous work([18]).

Data set [5] can be described thus: Cytotoxicity assay, MTT method. The data set is classed as cell-based. As to conditions: mouse, fibroblast L929 cell line, 24 h of exposure. Here is the method:
as §2

In data set [6] the test system is human platelet rich plasma (PRP), ADP-induced platelet aggregation. The experiment in a line: ADP-induced platelet aggregation in human platelet rich plasma (Born turbidimetric method). The data set is classed as cell-based. As to conditions: inducer ADP 5 µM, read-out: Antiplatelet aggregation activity, IC50, ADP. Here is the method:
as §1

For data set [7], the system named is human platelet rich plasma (PRP), arachidonic acid-induced platelet aggregation. In words: Arachidonic acid-induced platelet aggregation in human platelet rich plasma (Born turbidimetric method). The data set is classed as cell-based. The settings on record: inducer arachidonic acid 1.25 mg/mL; for pIC50: Platelet, read-out: Antiplatelet aggregation activity, IC50, AA. Here is the method: as §1

Results on 25 compounds are retold here after PMC4673935, “Synthesis, Antiplatelet Activity and Cytotoxicity Assessment of Indole-Based Hydrazone Derivatives” (Iranian Journal of Pharmaceutical Research : IJPR, 2015).

A word on the pIC50: it is the IC50 on a negative log10 scale, so that one unit is a factor of ten. Broadly, the IC50 is the concentration needed to halve the response being measured. A high value points to weaker potency in that assay. Broadly, the melting point is the temperature, or range, at which the solid turns liquid.

pIC50: −log10 of the molar value. Like-named read-outs stand apart in the source and are kept apart here.

For the compound `C(=NNc1ccccc1)c1c[nH]c2ccccc12` [1a, indole-3-carboxaldehyde phenylhydrazone], the values for the pIC50 in data set [1], in data set [2] and in data set [3] were less than 4.00, 4.41 and 5.00, respectively. Besides, the “Antiplatelet aggregation activity, IC50, Collagen” value in data set [2] is on record as “moderate activity”. In data set [4], the “Cytotoxicity, IC50” value is reported as “not toxic to fibroblast cells”. The compound also came in with a 50% inhibitory concentration (IC50) at 24 h in data set [5] (L929 fibroblast cells) greater than 100 µM.

For `O=C(NN=Cc1c[nH]c2ccccc12)c1ccc(Cl)cc1` [2c, Indole-3-carboxaldehyde 4-chlorobenzoylhydrazone], the pIC50 in data set [6], in data set [2] and in data set [7] was less than 4.00 each time. Besides, in data set [5] (L929 fibroblast cells), the IC50 at 24 h was greater than 100 µM.

Take `Cc1ccc(NN=Cc2c[nH]c3ccccc23)cc1` [1h, Indole-3-carboxaldehyde 4-methylphenylhydrazone]: the pIC50 in data set [6] was less than 4.00; in data set [2], less than 4.00; in data set [7], 4.24. In addition, the “Cytotoxicity, IC50” value in data set [4] is “not toxic to fibroblast cells”. This compound had an IC50 at 24 h in data set [5] (L929 fibroblast cells) greater than 100 µM.

In the case of `Cc1ccc(C(=O)NN=Cc2c[nH]c3ccc(Cl)cc23)cc1` [3f, 5-Chloroindole-3-carboxaldehyde 4-methylbenzoylhydrazone], the melting point is 244 °C (dec.). In addition, in data set [6], the pIC50 was less than 4.00. For the same compound, the pIC50 in data set [2] was less than 4.00. In data set [7], the pIC50 was less than 4.00. The compound further returned an IC50 at 24 h in data set [5] (L929 fibroblast cells) of 62.7 µM.

`O=C(NN=Cc1c[nH]c2ccccc12)c1cccc(Cl)c1` [2b, Indole-3-carboxaldehyde 3-chlorobenzoylhydrazone] displayed a melting point of 215 to 218 °C. For the same compound, in data set [6], the pIC50 was less than 4.00. For the same compound, the pIC50 in data set [2] is less than 4.00. Also, in data set [7], the pIC50 was less than 4.00. The half-maximal inhibitory concentration (IC50) at 24 h in data set [5] (L929 fibroblast cells) was greater than 100 µM.

In turn, `Cc1cccc(C(=O)NN=Cc2c[nH]c3ccc(Cl)cc23)c1` [3e, 5-Chloroindole-3-carboxaldehyde 3-methylbenzoylhydrazone] displayed a melting point of 226 to 228 °C. Besides, the pIC50 in data set [6] is less than 4.00. Moreover, the pIC50 in data set [2] was less than 4.00. Besides, in data set [7], the pIC50 is less than 4.00. The compound further yielded an IC50 at 24 h in data set [5] (L929 fibroblast cells) of 49.6 µM.

As for `Clc1ccccc1NN=Cc1c[nH]c2ccccc12` [1c, Indole-3-carboxaldehyde 2-chlorophenylhydrazone], the figures for the pIC50 in data set [6], in data set [2] and in data set [7] were less than 4.00, 4.07 and 4.84, respectively. For the same compound, in data set [7], the “Antiplatelet aggregation activity, IC50, AA” value was “still acceptable”. In addition, the concentration for half-maximal inhibition (IC50) at 24 h in data set [5] (L929 fibroblast cells) was determined as 45.9 µM.

Take `O=C(N/N=C/c1c[nH]c2ccccc12)c1ccncc1` [2g]: the negative logarithm of the IC50 (pIC50) in data set [1], in data set [2] and in data set [3] was less than 4.00 throughout. Also, the IC50 at 24 h in data set [5] (L929 fibroblast cells) is greater than 100 µM.

Compound `Cc1cccc(C(=O)NN=Cc2c[nH]c3ccccc23)c1` [2e, Indole-3-carboxaldehyde 3-methylbenzoylhydrazone] gave a melting point of 212 to 214 °C. Moreover, the pIC50 in data set [6] is less than 4.00. The pIC50 in data set [2] was less than 4.00. Also, in data set [7], the pIC50 was less than 4.00. Further, the IC50 at 24 h in data set [5] (L929 fibroblast cells) is greater than 100 µM.

As to `CC(=O)Oc1ccccc1C(=O)O` [Aspirin, reference compound], the figures for the pIC50 in data set [6], in data set [2] and in data set [7] were less than 4.00, 5.01 and 4.52, respectively.

Consider `O=C(NN=Cc1c[nH]c2ccc(Cl)cc12)c1ccncc1` [3g, 5-Chloroindole-3-carboxaldehyde isonicotinoylhydrazone], for which the melting point was greater than 270 °C. The pIC50 in data set [6] is less than 4.00. The negative-log IC50 (pIC50) in data set [2] is less than 4.00. Besides, the pIC50 in data set [7] was less than 4.00. The same compound had an IC50 at 24 h in data set [5] (L929 fibroblast cells) greater than 100 µM.

`Fc1ccc(N/N=C/c2c[nH]c3ccccc23)cc1` [1b]: the pIC50 is less than 4.00 in data set [6], less than 4.00 in data set [2] and 4.54 in data set [7]. Moreover, the “Cytotoxicity, IC50” value in data set [4] was “not toxic to fibroblast cells”. Moreover, the IC50 at 24 h in data set [5] (L929 fibroblast cells) is greater than 100 µM.

With `Brc1ccc(N/N=C/c2c[nH]c3ccccc23)cc1` [1f], the pIC50 in data set [6] was 4.00; in data set [2] it was less than 4.00; in data set [7], 4.67. Also, the “Antiplatelet aggregation activity, IC50, AA” value in data set [7] was “still acceptable”. The midpoint of inhibition in data set [5] (L929 fibroblast cells), the IC50 at 24 h, lay at 59.8 µM.

On to `O=C(NN=Cc1c[nH]c2ccccc12)c1ccccc1` [2a, Indole-3-carboxaldehyde benzoylhydrazone], for which the melting point was in the range of 238 to 241 °C. Further, the pIC50 in data set [6] was less than 4.00. Besides, the pIC50 in data set [2] is less than 4.00. The pIC50 in data set [7] is less than 4.00. The half-inhibitory concentration (IC50) at 24 h in data set [5] (L929 fibroblast cells) was greater than 100 µM.

For `O=C(N/N=C/c1c[nH]c2ccc(Cl)cc12)c1ccccc1` [3a], the pIC50 in data set [6], in data set [2] and in data set [7] was less than 4.00 in each case. Also, in data set [5] (L929 fibroblast cells), the IC50 at 24 h was greater than 100 µM.

Consider `COc1ccc2c(c1)c(CC(=O)O)c(C)n2C(=O)c1ccc(Cl)cc1` [Indometacin, reference compound], for which the results for the pIC50 in data set [6], in data set [2] and in data set [7] were less than 4.00, 5.82 and 5.52, respectively.

Turning to `Clc1ccc(N/N=C/c2c[nH]c3ccccc23)cc1` [1e], the negative-log IC50 (pIC50) is less than 4.00 in data set [6], 4.20 in data set [2] and 4.65 in data set [7]. In data set [2], the “Antiplatelet aggregation activity, IC50, Collagen” value was “moderate activity”. In addition, in data set [5], inhibition was half-maximal at 66.7 µM (IC50 at 24 h).

The compound `Clc1cccc(NN=Cc2c[nH]c3ccccc23)c1` [1d, Indole-3-carboxaldehyde 3-chlorophenylhydrazone] came in with a melting point of 211 to 214 °C. Further, the pIC50 in data set [6] was less than 4.00. Besides, the pIC50 in data set [2] is less than 4.00. In addition, the pIC50 in data set [7] is 4.55. The compound also displayed an IC50 at 24 h in data set [5] of 33.9 µM.

The compound `O=C(NN=Cc1c[nH]c2ccccc12)c1ccc([N+](=O)[O-])cc1` [2d, Indole-3-carboxaldehyde 4-nitrobenzoylhydrazone] returned a melting point of 250 to 253 °C. The pIC50 in data set [6] is less than 4.00. Also, the pIC50 in data set [2] was less than 4.00. Besides, the pIC50 in data set [7] was less than 4.00. This compound registered an IC50 at 24 h in data set [5] (L929 fibroblast cells) greater than 100 µM.

Turning to `O=C(N/N=C/c1c[nH]c2ccc(Cl)cc12)c1ccc(Cl)cc1` [3c], the pIC50 in data set [6], in data set [2] and in data set [7] was less than 4.00 throughout. In data set [5] (L929 fibroblast cells), the IC50 at 24 h was 71.3 µM.

The compound `Cc1ccc(C(=O)NN=Cc2c[nH]c3ccccc23)cc1` [2f, Indole-3-carboxaldehyde 4-methylbenzoylhydrazone] showed a melting point greater than 270 °C. For the same compound, in data set [6], the negative logarithm of the IC50 (pIC50) is less than 4.00. The pIC50 in data set [2] is less than 4.00. In data set [7], the pIC50 is less than 4.00. Also, the IC50 at 24 h in data set [5] (L929 fibroblast cells) is greater than 100 µM.

Compound `O=C(NN=Cc1c[nH]c2ccc(Cl)cc12)c1cccc(Cl)c1` [3b, 5-Chloroindole-3-carboxaldehyde 3-chlorobenzoylhydrazone] showed a melting point of 230 to 233 °C. Besides, the pIC50 in data set [6] was less than 4.00. Moreover, the pIC50 in data set [2] was less than 4.00. In addition, in data set [7], the negative logarithm of the IC50 (pIC50) was less than 4.00. Moreover, the concentration for half-maximal inhibition (IC50) at 24 h in data set [5] (L929 fibroblast cells) stood at 55.5 µM.

`Cc1ccccc1NN=Cc1c[nH]c2ccccc12` [1g, Indole-3-carboxaldehyde 2-methylphenylhydrazone]: the melting point was 176 to 178 °C. In data set [6], the pIC50 was less than 4.00. In addition, in data set [2], the negative-log IC50 (pIC50) is 4.12 and the “Antiplatelet aggregation activity, IC50, Collagen” value is “moderate activity”. Besides, the pIC50 in data set [7] was 4.25. The compound also had an IC50 at 24 h in data set [5] (L929 fibroblast cells) of 85.1 µM.

`O=C(NN=Cc1c[nH]c2ccc(Cl)cc12)c1ccc([N+](=O)[O-])cc1` [3d, 5-Chloroindole-3-carboxaldehyde 4-nitrobenzoylhydrazone] came in with a melting point greater than 270 °C. Besides, in data set [6], the pIC50 is less than 4.00. Besides, the negative logarithm of the IC50 (pIC50) in data set [2] was less than 4.00. In addition, in data set [7], the pIC50 is less than 4.00. This compound came in with an IC50 at 24 h in data set [5] (L929 fibroblast cells) greater than 100 µM.

Regarding `COc1ccc(NN=Cc2c[nH]c3ccccc23)cc1` [1i, Indole-3-carboxaldehyde 4-methoxyphenylhydrazone], the values for the pIC50 in data set [6], in data set [2] and in data set [7] were less than 4.00, less than 4.00 and 5.15, respectively. The IC50 at 24 h in data set [5] (L929 fibroblast cells) was found to be 74.5 µM.
